Assay results reported in PMC6093661, “Vitamin E hydroquinone is an endogenous regulator of ferroptosis via redox control of 15-lipoxygenase” (PLoS ONE, 2018).
Several values for one entry are separate records, joined by “and”; a condition that tells them apart may be missing. Identical values can stand only once. Like-named read-outs stand apart in the source and are kept apart here.

Legend:
[1] = Radical-trapping antioxidant (RTA) activity assay in DOPC liposomes; conditions: for Radical Trapping Assay AUC (Rel. Control): 50 μM compound, 2 mol% in DOPC liposomes, BODIPY 581/591 C11 quenching, liposome-only control = 1
[2] = tested on: Q7 cells; test: Cellular quantification of αTCC in Q7 cells (LC-MS/MS, succinate capping); assay type: in vitro ADME, mouse; conditions: 6 technical replicates in each of 4 experiments
Description: Due to poor ionization of αTCC, the succinate capping method was used for quantification of the succinate ester derivative formed by cell lysis with 100 mg/mL succinic anhydride in 95:5 (acetonitrile:triethylamine).
Q7 cells were cultured in standard culture medium for 18 hours prior to compound addition. After the specified treatment time, the culture medium was removed and adherent cells were washed with PBS. The wash was removed and adherent cells were harvested by adding 1 mL of 100 mg/mL succinic anhydride in 95:5 (acetonitrile:triethylamine) followed by immediate cell scrapping. After cell scrapping, samples were transferred to a 1.5 mL Eppendorf tube, vortexed for 15 seconds, and kept on wet ice until all samples were harvested. […]
Samples were analyzed using a developed method on a Shimadzu 30AD using micro-flow with a Shimadzu SIL-30AC autosampler, and coupled to an AB Sciex 6500+ QTRAP mass spectrometer. […] Analyzer parameters were optimized for each compound using a combination of manual tuning and compound optimization. αTCC was measured as αTCC-succinate. […]
A Phenomenex Kinetex C18 (2.1 x 50 mm, 1.3 µm) column using a reverse phase gradient mobile phase method was used for chromatographic separation. […] Data were analyzed using Sciex Analyst Chromatography software, version 1.6.2 and Sciex MultiQuant software. […]

[3] = ORAC (oxygen radical absorbance capacity) assay; conditions: average of 25 and 12.5 μM compound; mean, SEM, n = 6
Description: ORAC assay kits were purchased from Cell Biolabs. Assays were performed per the manufacturer’s instructions for lipophilic samples with minor modifications. DMSO stock solutions of compounds were diluted in an anaerobic glovebox to final concentrations of 25 and 12.5 μM in triplicate. A standard curve of Trolox® between 0–100 μM in triplicate per concentration was also generated on each assay plate. Diluted compounds and standards were removed from the glovebox and reactions initiated by addition of aerobic fluorescein reagent and radical initiator. Fluorescein fluorescence was monitored at excitation wavelength of 480 nm and emission wavelength of 520 nm every minute for one hour. AUC analysis was performed as described in the kit protocol. The “Trolox equivalents” at each concentration of test compound were calculated and the average Trolox equivalents at the two compound concentrations are presented. The errors were determined by propagating errors from the SEMs of the triplicate determinations to the averages across the two triplicate determinations.

[4] = biological target: T1, Rabbit 15-lipoxygenase (rLOX15) (Oryctolagus cuniculus, UniProt P12530); test: Lipoxygenase enzyme inhibition assay; assay type: biochemical; conditions: for inhibition of rabbit 15-LO enzyme activity: arachidonic acid as substrate, up to 100 μM; for IC50 / activity at 100 µM: rabbit 15-LO; for IC50: 50 μM arachidonic acid substrate; for activity at 100 µM: compound 100 μM, read-out: 15-Lipoxygenase Enzyme Assay % activity at 100 μM
T1 construct: purchased Enzo Life Sciences, Inc. BML-PL015
T1 sequence (P12530 1-663): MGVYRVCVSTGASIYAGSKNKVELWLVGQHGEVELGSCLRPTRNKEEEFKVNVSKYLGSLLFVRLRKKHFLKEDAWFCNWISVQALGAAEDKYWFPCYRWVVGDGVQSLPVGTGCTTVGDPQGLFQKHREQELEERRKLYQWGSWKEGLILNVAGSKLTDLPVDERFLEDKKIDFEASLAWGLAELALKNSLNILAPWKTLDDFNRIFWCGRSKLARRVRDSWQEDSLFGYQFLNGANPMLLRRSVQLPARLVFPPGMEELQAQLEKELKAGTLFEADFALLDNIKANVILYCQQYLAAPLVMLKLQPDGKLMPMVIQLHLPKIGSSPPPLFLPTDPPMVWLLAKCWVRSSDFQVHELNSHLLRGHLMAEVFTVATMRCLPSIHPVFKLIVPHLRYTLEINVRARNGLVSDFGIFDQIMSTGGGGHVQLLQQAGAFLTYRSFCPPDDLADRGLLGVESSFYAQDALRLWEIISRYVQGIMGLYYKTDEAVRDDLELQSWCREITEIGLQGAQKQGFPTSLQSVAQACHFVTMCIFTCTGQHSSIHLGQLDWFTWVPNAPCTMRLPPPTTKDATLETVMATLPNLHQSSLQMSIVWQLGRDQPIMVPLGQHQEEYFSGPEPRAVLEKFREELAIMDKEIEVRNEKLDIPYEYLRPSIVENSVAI
Description: Rabbit 15-lipoxygenase (rLOX15, part number BML-PL015, lot number 3-P9009a) was obtained from Enzo Life Sciences, Inc. Sodium cholate (part number C6445, lot number 094K0209) was obtained from Sigma-Aldrich.
Stock solutions of test compounds were prepared in DMSO and then diluted to final assay concentrations in cholate mix such that final cholate and DMSO concentrations were maintained at 0.2%.

[5] = tested on: Mouse striatal Q7 cells (STHdhQ7/Q7); test: RSL3 ferroptosis cell rescue (cellular survival assay, CellTiter-Glo)
[6] = tested on: 15-HETE release from Q7 cells; test: Targeted arachidonate metabolite release cellular assay (RSL3-treated Q7 cells); assay type: cell-based, mouse
Description: Ferroptosis was initiated by RSL3 (2 μM final concentration) in Q7 cells as described above. The protective activity of co-treated compounds was assessed also as described above. Four to five hours after RSL3 treatment, the conditioned medium was collected into 1.2-mL cluster tubes containing ice-cold acetonitrile at a ratio of 1:2. Tubes were snap frozen on dry ice and stored at -80°C.
Prior to analysis, samples were thawed on wet ice and then vortexed briefly. Samples were centrifuged at 4000 rpm for 15min at 4°C. Supernatant (40 μL) was transferred to a 96-well injection plate and 10 μL of both internal standard and HPLC grade water were added. A Shimadzu Nexera MP system coupled to a Sciex 6500 Qtrap and configured for micro-flow was used to analyze all samples. Samples were maintained at 4°C in the Nexera MP autosampler for the duration of the analytical run.
A Thermo Gold-C8 column (1.9 μm, 1.0 x 100 mm) operated at 45°C was used for chromatographic separation. The total run time of the liquid chromatography method was 10 min. Mobile phase A consisted of water with 0.1% formic acid. Mobile phase B was composed of 0.1% formic acid in 3:1 acetonitrile:isopropyl alcohol. Gradient elution was employed, with mobile phase B being ramped from 5% at 0min, to 50% at 2 min, and finally 98% at 7.5 min. Electrospray conditions for the μLC-ESI-MS/MS method were optimized for a flow rate of 125 μL/min and were as follows: Ion spray voltage was set to -4500 V, temperature of 250°C, curtain gas of 20, CAD gas of 10, and ion source gas 1 and 2 of 20 and 40 psi, respectively. Analyzer parameters were optimized for each compound using a combination of manual tuning and compound optimization. The following MRM transitions were used to quantify concentrations of 15-HETE, 12-HETE and Arachidonic Acid (AA). 15-HETE: 319→219; 12-HETE: 319→179; AA: 303→259.

[7] = tested on: Q7 cells; conditions: mouse
[8] = tested on: Q7 cells; test: Cellular lipid oxidation assay (BODIPY 581/591 C11, RSL3-treated Q7 cells); assay type: cell-based, mouse; conditions: RSL3 2 μM, 6-point titration, time-lapse microscopy
Description: Ferroptosis was induced by RSL3 (2 μM final concentration) in Q7 cells as described above. The protective activity of co-treated compounds was assessed also as described above. The rate of cellular lipid oxidation after GPX4 inhibition was assessed by monitoring the time-dependent changes in green fluorescence of cells pre-labeled with BODIPY™ 581/591 C11 dye (5 μM, 30-minute labeling period; Thermo Fisher/Invitrogen) using the IncuCyte S3 live-cell imaging apparatus (Sartorius) using a 10x objective. Cells (three images per field; at least three replicate wells per condition) were imaged once hourly for up to 18 hours after compound and RSL3 addition. Quantification of cell images was performed using the IncuCyte Zoom software using the Basic Analyzer tool which utilized an algorithm that calculated the total green-positive area per well where “green-positive” was defined as 1.45 times the local background-subtracted fluorescent signal. After a 2-3-hour lag period post-RSL3 treatment, the cellular green fluorescence signal began increasing. The rate of change in total green-positive area per well from 3–9 hours post-compound treatment was calculated, then expressed relative to that observed in the RSL3-only control treatment group, which was defined as 100%.

[9] = tested on: Q7 cells; test: Intracellular quantification of αT, αTQ and αTHQ in Q7 cells (LC-MS/MS, succinate capping); conditions: αTQ 10 μM, 24 h
[10] = Mus musculus, 18 h, read-out: RSL3 Ferroptosis Cell Assay Average EC50, Q7 cells, RSL3 2 μM, 18 h co-treatment, CellTiter-Glo 2.0

SMILES: Cc1c(C)c2c(c(C)c1O)CCC(C)(CCCC(C)CCCC(C)CCCC(C)C)C2 (centres unmarked) [αTCC, 1,3,4,6-Tetramethyl-6-(4,8,12-trimethyltridecyl)-5,6,7,8-tetrahydronaphthalen-2-ol]
- Radical Trapping Assay AUC (Rel. Control) [1]: 4.706
- RTA AUC fold greater than αTQ and αTHQ ([1]; DOPC liposomes, AUC relative to liposome only control): 2.5–4 fold
- cellular exposure of αTCC [2]: > 50 µM
- ORAC Antioxidant Activity Assay Trolox Equiv. [3]: 0.075 Trolox Equiv. and 0.075 ± 0.008 Trolox Equiv.
- inhibition of rabbit 15-LO enzyme activity [4]: did not
- IC50 [4]: > 100000 nM
- activity at 100 µM [4]: 77%
- EC50 [5, 10]: > 30000 nM
- rescue at 30 μM ([5]; Q7 cells, RSL3 2 μM, 30 μM highest concentration tested, mean ± SD, N = 7): 42 ± 21%

SMILES: CC1=C(C)C(=O)C(CC[C@](C)(O)CCC[C@H](C)CCC[C@H](C)CCCC(C)C)=C(C)C1=O [αTQ, α-tocopherol quinone]
- Radical Trapping Assay AUC (Rel. Control) [1]: 1.217
- IC50 ([6]; Mus musculus, RSL3 2 μM, conditioned medium 4-5 h, read-out: IC50 for RSL3-induced cellular release of 15-HETE): 600 nM
- effect on 12-HETE levels ([6]; RSL3, compound 5 μM): not altered
- effect on cellular or released AA levels ([6]; RSL3, compound 5 μM): no effect
- effect on RSL3-dependent induction of cellular and released 15-HETE ([6]; compound 5 μM): inhibited
- fold increase in cellular αTHQ after αTQ supplementation [7]: > 600 fold
- fold increase in cellular αTQ after αTQ supplementation [7]: > 300 fold
- ORAC Antioxidant Activity Assay Trolox Equiv. [3]: 0.044 Trolox Equiv.
- inhibition of rabbit 15-LO enzyme activity [4]: did not
- IC50 [4]: > 100000 nM
- activity at 100 µM [4]: 75%
- effect on RSL3-induced lipid oxidation (BODIPY 581/591 C11 oxidation) [8]: prevented
- EC50 [5, 10]: 233 nM
- fold more potent than αT in preventing ferroptotic cell death ([5]; Q7 cells, RSL3, EC50 ratio vs αT): 22 fold
- EC50 ([5]; read-out: RSL3 Ferroptosis Cell Assay Average EC50, Q7 cells, RSL3 2 μM, 18 h co-treatment, CellTiter-Glo 2.0): 230 ± 100 nM
- cellular exposure of αT after αTQ supplementation (back-conversion) [9]: unaffected
- cellular αTQ exposure after αTQ supplementation [9]: over 250 μM
